Measurements from paper PMC4805609, “Estrogenic Effects of Several BPA Analogs in the Developing Zebrafish Brain” (Frontiers in Neuroscience, 2016).
Like-named read-outs stand apart in the source and are kept apart here.

Columns and labels:
[1] = test system: cyp19a1b promoter; assay: EASZY assay: GFP fluorescence in brain of live cyp19a1b-GFP transgenic 4-dpf larvae; format: in vivo, zebrafish; conditions: 4-dpf cyp19a1b-GFP larvae, exposure 2 hpf to 4 dpf
Experimental: Quantification of fluorescence in transgenic cyp19a1b-GFP zebrafish larva brain was performed according to Brion et al. ([2012]). In this assay, estrogenic activity is detected in living 4 days-old larvae (treated or not with an estrogen mimic compound) from the observation of the reporter gene fluorescence in the radial glial cells. […] All photographs were taken using the same parameters: only the head was photographed under a X10 objective, with a 134 ms exposure time and maximal intensity. Photographs were analyzed using the Axiovision Imaging software and fluorescence quantification was performed using the ImageJ software (http://rsbweb.nih.gov/ij/). For each picture, the integrated density was measured, i.e., the sum of the gray-values of all the pixels within the region of interest. A gray-value of 290 was defined as background value. For each micrograph the fluorescence fold induction of fluorescence was calculated comparing the integrated pixel density with the average fluorescence induction obtained in the control group.

[2] = test system: cyp19a1b gene; assay: RT-qPCR of cyp19a1b transcripts in wild type 7-dpf larva brains
Experimental: (§1) For subsequent RT-qPCR and in situ hybridization analysis with wild type zebrafish, groups of 80 embryos (for each condition) were placed after 1 day post-fertilization (1-dpf) in a large glass flask containing 100 ml of embryonic medium (Mouriec et al., [2009b]). […] The embryos were held in the exposure flasks until 7-dpf larva stage. […] Embryos were maintained in the exposure dishes until 4-dpf larva stage. During the treatment period, 100% of the exposure medium was renewed every 24 h (for both wild type and transgenic zebrafish).
Tissue was sonicated (10 s, 3 times) in 250 μL Trizol Reagent (Invitrogen) and RNA extractions were carried out according to the manufacturer's protocol. Reverse transcription was carried out by incubating 2μg total RNA with 1μg of random primer oligonucleotides, 2.5ṁM dNTPs, and 50 U MMLV-RT (Promega) in the appropriate buffer for 10 min at 65°C and 60 min at 37°C. Quantitative Polymerase chain reaction (qPCR) experiments were performed in an iCycler thermocycler coupled to the MyiQ detector (Bio-Rad. Hercules, CA, USA) using iQ SYBR-Green Supermix (Bio-Rad) according to the manufacturer's protocol. The following primers were used: ef1 (fw) 5′-[…]-3′; ef1 (rev) 5′-[…]-3′; cyp19a1b (AroB; fw) 5′-[…] For each condition, the RT-PCR experiment was run in triplicates. Expression levels of ef1 mRNA were used to normalize cyp19a1b expression levels. Melting curve and PCR efficiency analyses were performed to confirm correct amplification. For quantification of PCR results, the threshold cycle (Ct) was determined for each reaction. Ct values for each gene of interest were normalized with the housekeeping gene ef1, using the ΔΔCt method. Normalized values were used to calculate the degree of induction or inhibition expressed as a “fold difference” compared to normalized control values.

[3] = molecular target: T1, zfERα (Danio rerio, UniProt P57717); assay: cyp19a1b-luciferase reporter gene assay in U251-MG glial cells transfected with zfERα; format: cell-based, zebrafish; parameters: containing the coding regions of each zebrafish estrogen receptor cDNA; expressed in transfected cells; host or cells: human U251-MG glial cells (ER-negative); conditions: for cyp19a1b-luciferase reporter gene induction: 10–6 M, 24 h, U251-MG cells with ERα, vs DMSO
T1 sequence (P57717 1-569): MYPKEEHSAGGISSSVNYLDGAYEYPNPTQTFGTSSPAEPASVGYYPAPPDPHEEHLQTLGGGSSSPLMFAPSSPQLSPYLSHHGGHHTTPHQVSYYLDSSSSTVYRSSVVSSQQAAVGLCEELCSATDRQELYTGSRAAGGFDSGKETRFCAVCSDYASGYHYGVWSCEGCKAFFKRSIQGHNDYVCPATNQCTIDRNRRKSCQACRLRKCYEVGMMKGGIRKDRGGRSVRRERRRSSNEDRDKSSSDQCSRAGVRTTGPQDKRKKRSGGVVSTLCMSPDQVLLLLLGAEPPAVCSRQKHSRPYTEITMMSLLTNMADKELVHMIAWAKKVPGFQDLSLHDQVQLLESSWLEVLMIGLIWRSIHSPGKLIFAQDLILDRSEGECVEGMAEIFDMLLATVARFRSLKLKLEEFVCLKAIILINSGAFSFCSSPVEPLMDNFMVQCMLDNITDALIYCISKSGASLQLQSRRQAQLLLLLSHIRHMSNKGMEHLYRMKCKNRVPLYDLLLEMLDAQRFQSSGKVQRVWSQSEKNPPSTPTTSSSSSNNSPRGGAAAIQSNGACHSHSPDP
Experimental: (§2) The medium was also supplemented with 20 U/mL penicillin, 20 μg/mL streptomycin, and 50 ng/mL amphotericin B (Gibco). For transfections, cells were plated in 24-well plates at a density of 25,000 cells/ml in the same medium, except the fetal calf serum was charcoal-treated and used at a concentration of 2.5%. Cells were transfected with 25 ng/well either the vector expression containing or not the zfERα, zfERβ1, zfERβ2 coding region and cytomegalovirus [CMV]−β-Galactosidase, and 150 ng/well of the cyp19a1b-Luciferase reporter plasmid, using JetPEI as a transfection reagent (Polyplus Transfection, Illkirch, France). […] Luciferase activity was measured 24 h later (Luciferase assay system, Promega, Madison, WI, USA). β-Galactosidase activity was used to normalize transfection efficiency. Chemicals were tested in at least 3 independent experiments and each experiment was performed in triplicate.

[4] = molecular target: T1, zfERα; assay: competitive binding assay vs [3H]-E2 on in vitro translated zfERα; parameters: containing the coding regions of each zebrafish estrogen receptor cDNA; species or system zebrafish; conditions: for receptor-binding activity: competition with [3H]-E2, ERα, Figure 8A; for IC50: displacement of 10^−9 M [3H]-E2, ERα
Experimental: We also performed a competitive binding assay to test the binding properties of our compounds of interest with the three zfERs (Blair et al., [2000]). The three zebrafish estrogen receptor proteins were synthesized using the Topo-pcDNA3 expression vector containing the coding region of zfERα, zfERβ1, and zfERβ2 (Menuet et al., [2002]). The TNT Quick Coupled Transcription/Translation Systems kit (Promega, Madison, WI, USA) was used for synthesis of zfER proteins by adding 1 μg of each ER expression vector and according to the manufacturer's protocol. […] IC50 were calculated using GraphPad Prism, version 6.07.

[5] = test system: cyp19a1b transcripts; assay: cyp19a1b in situ hybridization on 7-dpf brain sections; format: in vivo, zebrafish; conditions: 7-dpf larvae; for distribution of cyp19a1b transcripts in the whole brain: transverse sections
Experimental: as §1
Larvae used for in situ hybridization experiments originated from the same exposition groups than RT-qPCR experiments. After exposure to the different conditions, 10 wild type 7-dpf larvae (for each treatment) were fixed overnight at 4°C in 4% paraformaldehyde, before embedding in parrafin. Serial thin transverse sections ([…]) were placed on cryofrost slides and subjected to in situ hybridization experiments. Sense and antisense digoxigenin-labeled riboprobes for the cyp19a1b gene were transcribed using the Digoxigenin RNA labeling kit in accordance with the manufacturer's instructions (Roche, Mannheim, Germany) and as previously described (Menuet et al., [2005]). The brain sections were processed for in situ hybridization using stringent conditions as previously published (D'Amico et al., [2011], [2013]). After NBT/BCIP revelation, sections were counterstained with DAPI, and mounted in a drop of vectashield (Vector Laboratories). All sections were photographed with an Olympus PROVIS AX70 microscope with a digital camera (Olympus SP71), or a Nikon multizoom AZ100 macroscope with a DS-Ri1 color camera.

[6] = test system: zebrafish embryos/larvae; assay: Mortality, toxicity, teratogenicity and motility of exposed embryos/larvae; format: in vivo; conditions: EE2 1 nM, BPA 0.1, 1, 10 μM; until 7-days larval stage; data not shown
[7] = molecular target: T2, zfERβ1 (Danio rerio, UniProt Q5PR29); assay: cyp19a1b-luciferase reporter gene assay in U251-MG glial cells transfected with zfERβ1; format: cell-based, zebrafish; conditions: 10–9 M, 24 h, U251-MG cells with ERβ1, vs DMSO
T2 sequence (Q5PR29 1-592): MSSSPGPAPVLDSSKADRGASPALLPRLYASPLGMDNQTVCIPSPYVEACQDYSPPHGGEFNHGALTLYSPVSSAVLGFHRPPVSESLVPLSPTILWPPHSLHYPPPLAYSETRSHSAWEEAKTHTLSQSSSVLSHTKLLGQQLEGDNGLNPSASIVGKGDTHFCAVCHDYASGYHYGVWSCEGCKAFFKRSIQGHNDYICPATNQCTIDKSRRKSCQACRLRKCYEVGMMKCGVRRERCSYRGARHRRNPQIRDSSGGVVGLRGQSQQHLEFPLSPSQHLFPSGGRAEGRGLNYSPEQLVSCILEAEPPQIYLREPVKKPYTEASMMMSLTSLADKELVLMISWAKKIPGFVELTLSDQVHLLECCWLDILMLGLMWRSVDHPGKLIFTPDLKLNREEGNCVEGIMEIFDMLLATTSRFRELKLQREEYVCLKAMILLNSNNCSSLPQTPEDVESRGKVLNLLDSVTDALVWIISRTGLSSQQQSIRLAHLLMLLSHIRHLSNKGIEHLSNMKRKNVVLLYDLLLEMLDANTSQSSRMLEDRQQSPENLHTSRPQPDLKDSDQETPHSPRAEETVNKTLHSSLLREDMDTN
Source text: The zfER-α, zfER-β1, and zfER-β2 expression vectors correspond to Topo-pcDNA3 expression vector (Invitrogen, San Diego, CA, USA), containing the coding regions of each zebrafish estrogen receptor cDNA as previously described (Menuet et al., [2002]). The cyp19a1b-Luciferase plasmid consists of 500 bp of the proximal promoter region of zebrafish cyp19a1b gene, containing an ERE, coupled to the luciferase reporter gene (Menuet et al., [2002]).
as §2, with “Human U251-MG glial cells were maintained in phenol red-free Dulbecco's Modified Eagle's Medium (DMEM; Life Technologies, Saint Aubin, France) supplemented with 10% fetal calf serum (Biowest, Nuaillé, France), 4 mM L-Glutamine (Gibco, Carlsbad, CA, USA) and 1 mM Na-Pyruvate (Life Technologies, Saint Aubin, France) and kept at 37°C and 5% CO2 atmosphere (Le Page et al., [2006]). The” for “The”

[8] = molecular target: zfERβ2 (Danio rerio, UniProt Q7ZU32); assay: cyp19a1b-luciferase reporter gene assay in U251-MG glial cells transfected with zfERβ2; format: cell-based, zebrafish; conditions: 10–9 M, 24 h, U251-MG cells with ERβ2, vs DMSO
Sequence of zfERβ2 (Q7ZU32 1-553): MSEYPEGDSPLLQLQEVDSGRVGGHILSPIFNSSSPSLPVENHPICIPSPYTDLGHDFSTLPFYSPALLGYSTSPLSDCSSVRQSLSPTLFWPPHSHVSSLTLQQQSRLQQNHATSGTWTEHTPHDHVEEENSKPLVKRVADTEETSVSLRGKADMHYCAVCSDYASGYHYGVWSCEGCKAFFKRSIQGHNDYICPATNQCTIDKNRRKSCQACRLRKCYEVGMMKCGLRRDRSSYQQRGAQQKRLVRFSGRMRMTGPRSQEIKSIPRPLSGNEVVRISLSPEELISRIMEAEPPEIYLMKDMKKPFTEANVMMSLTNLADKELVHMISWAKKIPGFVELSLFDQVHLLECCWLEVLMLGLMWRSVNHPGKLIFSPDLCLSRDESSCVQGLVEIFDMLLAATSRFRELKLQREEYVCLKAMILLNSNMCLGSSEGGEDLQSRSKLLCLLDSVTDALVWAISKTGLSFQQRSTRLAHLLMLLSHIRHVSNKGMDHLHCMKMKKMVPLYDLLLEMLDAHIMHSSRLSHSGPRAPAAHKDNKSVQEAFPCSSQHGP
Experimental: as §2

`Oc1ccc(Cc2ccc(O)cc2)cc1` [BPF, 4,4′-dihydroxydiphenyl methane] was tested, and the “GFP fluorescence, fold induction above DMSO control” value ([1]; 1 μM) was 13 fold, the “cyp19a1b gene expression, fold induction relative to DMSO” value ([2]; 1 μM, 7-dpf larvae brains, six independent exposures, Figure 1B) was 20 fold and the “cyp19a1b-luciferase reporter gene induction” value [3] was “increased luciferase activity in ERα cells, but the stimulation did not reach statistical significance”. For the same compound, the receptor-binding activity [4] was “bind in vitro to ERα receptor”, the IC50 [4] was 10.6 µM and the “distribution of cyp19a1b transcripts in the whole brain” value (shortened to “distribution of cyp19a1b transcripts”) ([5]; 1 μM) was “identical to EE2- and BPA-treated animals”.
With `C[C@]12CC[C@@H]3c4ccc(O)cc4C[C@@H](CCCCCCCCC[S+]([O-])CCCC(F)(F)C(F)(F)F)[C@H]3[C@@H]1CC[C@@H]2O` (stereo partly drawn) [ICI, reference compound] the “effect on BPA, BPF and BPAF stimulations of cyp19a1b-luciferase” value ([3]; simultaneous treatment, ERα-expressing U251-MG cells, Figure 7B) was “completely abolished”.
For `CC(C)(c1ccc(O)cc1)c1ccc(O)cc1` [BPA, 2,2-bis(4-hydroxyphenyl)propane, reference compound], the fold induction at 1 µM ([1]; Danio rerio, read-out: GFP fluorescence, fold induction above DMSO control) was 16, the fold induction at 0.1 µM ([2]; Danio rerio, read-out: cyp19a1b gene expression, fold induction relative to DMSO, 0.1 μM, 7-dpf larvae brains, Figure 1A) was 9 and the fold induction at 1 µM ([2]; Danio rerio, read-out: cyp19a1b gene expression, fold induction relative to DMSO, 1 μM, 7-dpf larvae brains, Figure 1A) was about 20. For the same compound, the fold induction at 1 µM ([2]; Danio rerio, read-out: cyp19a1b gene expression, fold induction relative to DMSO, 1 μM, 7-dpf larvae brains, six independent exposures, Figure 1B) was about 36, the fold induction at 10 µM ([2]; Danio rerio, read-out: cyp19a1b gene expression, fold induction relative to DMSO, 10 μM, 7-dpf larvae brains, Figure 1A) was 12 and the “cyp19a1b-luciferase reporter gene induction” value [3] was “significant stimulation”. For the same compound, the receptor-binding activity [4] was “bind in vitro to ERα receptor”, the IC50 [4] was 2.8 µM and the “cyp19a1b transcripts in the nucleus recessus posterioris (nrp), caudal hypothalamus” value ([5]; 1 μM) was “strong levels of cyp19a1b transcripts”. For the same compound, the “distribution of cyp19a1b transcripts” value ([5]; 1 μM) was “strong presence of cyp19a1b transcripts in virtually identical regions than EE2-treated larvae” and the “toxic or teratogenic effect” value [6] was “did not caused notable toxicological effects”.
`C#C[C@]1(O)CC[C@H]2[C@@H]3CCc4cc(O)ccc4[C@H]3CC[C@@]21C` [EE2, 17α-ethinylestradiol, reference compound] was tested, and the “cyp19a1b-luciferase reporter gene induction” value [7] was “strong induction”, the “distribution of cyp19a1b transcripts” value ([5]; EE2 1 nM) was “massive over-expression of the cyp19a1b transcripts” and the “cyp19a1b-luciferase reporter gene induction” value [8] was “strong induction”.
